Laboratory results: US11629174B2, “Cryptic metabolites and method for activating silent biosynthetic gene clusters in actinomycete bacteria” (The Trustees of Princeton University, priority 2017, dated 2023)
Where two headings read alike, the source gives them in different places. Square brackets hold non-standard residues; d marks the D form. Peptide text beside a SMILES is read from it. * marks the point of attachment. ξ: configuration not given here. dIle(3ξ) = CCC(C)[C@@H](N)C(=O)O; Ile(3ξ) = CCC(C)[C@H](N)C(=O)O; ξK = NCCCCC(N)C(=O)O; Butyryl = CCCC(=O)*

What was measured:
[1] = tested on: 36 diverse cancer cell lines; conditions: cited from earlier work
Gene cluster 2631 = test: HiTES in S. erythraea, gene cluster 2631; type: cell-based; conditions: FIG. 10
Gene cluster 4143 = test: HiTES in S. erythraea, gene cluster 4143; type: cell-based; conditions: FIG. 12
Gene cluster 4477 = test: HiTES in S. erythraea, gene cluster 4477; type: cell-based; conditions: FIG. 14
sur cluster = test: High-throughput elicitor screen (HiTES), eGFPx3 reporter strains of the sur cluster; type: cell-based, Streptomyces albus J1074; conditions: attB::Psur-eGFPx3 and surE::eGFPx3, ~33 μM, 60 h, hit threshold 2.5-fold eGFP fluorescence
Description: These next four steps are seen be referring to the previously described example. In the previously described example, HiTES was carried out using the two constructs seen in FIGS. 2B and 2C with a ˜500-member natural products library. Each S. albus construct was grown in a 96-well format, supplemented with the compound library, and the effect of each compound on the silent BGC determined using eGFP-derived fluorescence. Interference from naturally fluorescent compounds in the library was eliminated by subtracting the […], immediately after addition of the library members.
Referring to FIGS. 3A and 3B, results for both genetic constructs are shown. These graphs show relative expression of a neutral site reporter, attB::Psur-eGFPx3 (FIG. 3A) or targeted sur reporter, surE::eGFPx3 (FIG. 3B) as a function of exogenously-supplied small molecules. Each bar represents the level of expression of sur in the presence of a single candidate elicitor. Plus signs denote the positive control, attB::PermE-eGFPx3. Minus signs denote the negative controls, attB::Psur-eGFPx3 (3A) or surE::eGFPx3 (3B) in the absence of any metabolites. The expression has been normalized to the positive control.
In this example, the threshold amount was a 2.5 fold induction of eGFP-derived fluorescence emission. Thus, hits were considered those that gave at least a 2.5-fold induction of eGFP-derived fluorescence emission. However, in other embodiments, hits may be those giving at least a 2 fold induction, more preferably at least a 3 fold induction, and more preferably at least a 4 fold induction.
Seed cultures for the reporter strains sur::eGFPx3, attB::Psur-eGFPx3, negative control wild-type, and positive control attB::PermE-eGFPx3 inoculated by transferring fresh spores (˜10^7) into 20 mL of YEME medium (per L: 3% (w/v) yeast extract, 5% peptone, 3% malt extract, 1% glucose and 10.7% sucrose, and 5 mM MgCl2.6H2O) in a 125 mL Erlenmeyer flask equipped with stain-less steel springs. The cultures were grown at 30° C. and 250 rpm for 3 days. Mycelia from each of the four cultures were collected by centrifugation (10 min, 3000 g, RT) and diluted into 150 mL of R4 medium to give a final concentration of 0.05% (w/v). R4 medium consisted of (per L) 0.5% (w/v) glucose, 0.1% yeast extract, 0.5% MgCl2.6H2O, 0.2% CaCl2.2H2O, 0.15% proline, 0.118% valine, 0.28% TES, 50 mg/L casamino acid, 100 mg/L K2SO4, and 1× trace element solution, which contains 40 mg/L ZnCl2, 200 mg/L FeCl3.6H2O, 10 mg/L CuCl2.2H2O, 10 mg/L MnCl2.4H2O, 10 mg/L Na2B4O7.10H2O, and 10 mg/L (NH4)6Mo7O24.4H2O).
Subsequently, the two reporter strains (sur::eGFPx3 and attB::Psur-eGFPx3) were each dispensed into 5× sterile, clear-bottom 96-well plates (150 μL per well) using a MultiFlo Microplate Dispenser (BioTek). A separate sterile 96-well separate plate was prepared for positive and negative controls; it contained the negative control (wt S. albus J1074) in columns 1-3, sur::eGFPx3 in columns 4-6, attB::Psur-eGFPx3 in columns 7-9, and the positive control attB::PermE-eGFPx3 in columns 10-12 of the plate. No elicitors were added to the control plates. […] Upon additional of the compound library, t=0 fluorescence reads were recorded on a Synergy H1MF plate reader (BioTek) using Aex=485 nm and Aem=505-650 nm in 5 nm steps. […]

Gene cluster 3648 = test: HiTES in S. avermitilis, gene cluster 3648; type: cell-based; conditions: FIGS. 16 and 17
cathepsin B = target: T1, cathepsin B (Homo sapiens, UniProt P07858); test: Cathepsin B inhibition assay (fluorescence kit); type: biochemical
T1 construct: purchased Sigma-Aldrich
Description: Cathepsin B inhibition assays were carried as previously reported using the Cathepsin B Inhibition assay kit (Sigma-Aldrich). The fluorescence-based assays was conducted in a final volume of 50 μL according to manufacturer instructions. Fluorescence emission was determined in a microtiter plate in kinetic mode (1 read per minute for 1 h) using a BioTek H1MF plate reader and Aex˜400/Acm˜505 nm. IC50 values were subsequently calculated according to instructions.

surA and surC = test: RT-qPCR of surA and surC transcripts in wt S. albus; type: cell-based, Streptomyces albus J1074; conditions: for induction of surA and surC: mRNA vs DMSO control, wt S. albus
Description: In the example above, the effects of these putative elicitors on the sur cluster were validated by performing a RT-qPCR with wt S. albus. Upon exposure of S. albus to each elicitor or DMSO (control), total RNA was be isolated, converted to cDNA and the surA and surC transcripts quantified by qPCR. […] To further verify the effect of 1 and 2, a dose-response assay was carried out. With both elicitors, a concentration-dependent induction of sur was observed, yielding optimal upregulation at a final concentration of ˜23 μM (etoposide) and −30 μM (ivermectin) (FIG. 4B). These concentrations induced a ˜10-fold (etoposide) and 4.5-fold (ivermectin) upregulation of surC.
All operations involving RNA utilized a dedicated RNase-free work area. To commence the experiment, seed cultures of wt S. albus J1074 were prepared by inoculating 3 ml of TSBY medium (3% (w/v) tryptic soy broth and 0.5% yeast extract) in a sterile 14 ml bacterial culture tube with freshly-prepared spores (˜10^7). The culture was incubated at 30° C. and 250 rpm in an Ecotron Shaker (ATR). After 48 hours cultivation, the cells were collected by centrifugation and subsequently diluted to a final concentration of 0.05% (w/v) in 250 ml Erlenmeyer flask containing 50 ml of R4 medium. Desired elicitors were added to final concentrations indicated in the figures (typically 1-100 μM), and the cultures were incubated at 30° C. and 250 rpm. After 48 h, 1 ml was removed from each sample and transferred to a 1.5 ml RNase-free Eppendorf tube (Ambion). Each sample was centrifuged (16,000 g, 3 min) to collect the cells, the supernatant discarded, the cells flash-frozen in liquid N2, and stored at −80° C.
RNA isolation was carried out using the Qiagen RNeasy kit following the manufacturer's instructions without modifications. Upon isolation, contaminating DNA was removed using the DNA-free kit (Ambion) according to manufacturer's instructions. Gel electrophoreses subsequently confirmed RNA integrity (FIG. S2). Finally, total RNA was converted into cDNA via the PrimeScript™ RT reagent Kit (Takara) using random hexamers as primers and 500 ng of each RNA sample as template.
Three genes (surA, surC and surR) were chosen for quantification by RT-qPCR. The primers were designed using primer-3-plus software available online. The primers were carefully chosen to give an amplicon length of 130-160 bp and a melting temperature of 60° C., though this was later optimized (see below and Table 2). The primers were chosen to vary in length between 18-22 bp, and, if possible, to contain a single G/C clamp at the 3′ end. To ensure optimal qPCR parameters, the genomic DNA of S. albus J1074 was isolated using the Wizard genomic DNA purification kit (Promega), and each amplicon was subsequently amplified using standard PCR conditions with a high-fidelity, proof-reading Q5 DNA polymerase (NEB). The PCR reactions were then separated on a 1.2% agarose gel, the amplicon excised, and gel-extracted with the Gel Extraction kit (Qiagen). The extracted DNA was used to optimize qPCR conditions. Using the amplicon template, the primer concentrations were first varied followed by the annealing/extension temperatures, which ranged from 58-68° C. in eight steps. The combination that gave the lowest quantification cycle (Cq) was used in the experiments (Table 2). The Cq was obtained with an automatic baseline determined by the CFX Manager Software (Bio-Rad). As positive controls, these standards were included in every plate that contained the experimental samples, along with no-DNA controls, in duplicates.
qPCR analysis was performed on a CFX96 Real-Time PCR Detection System (Bio-Rad) consisting of a C1000 Thermal Cycler and a CFX96 Real-Time System. The reaction was carried out in hard-shell, clear 96-well qPCR plates (Bio-Rad) and utilized the iTaq Universal SYBR Green Supermix (Bio-Rad). […]

Gene cluster 4286 = test: HiTES in S. erythraea, gene cluster 4286; type: cell-based; conditions: FIG. 13
S. cerevisiae = test: Antifungal microtiter assay; type: cell-based; conditions: Saccharomyces cerevisiae, 40 h, OD600
Description: Bacillus subtilis 168, E. coli K 12, Pseudomonas aeruginosa PAO1, Enterococcus faecalis OG1RF, Staphylococcus aureus Newman, Saccharomyces cerevisiae and Saccharomyces pombe were used for antibiotic assays. B. subtilis (30° C.), E. coli (37° C.), P. aeruginosa (30° C.), and E. faecalis (37° C.) were cultured in LB medium at the temperatures indicated. S. aureus was cultured in Brain-Heart-Infusion (BHI) medium at 37° C. S. cerevisiae and S. pombe were grown at 25° C. in YPM medium (0.5% yeast extract, 0.3% peptone, 2.5% mannitol), and YES medium (0.5% yeast extract, 3% glucose, 225 mg/L leucine, 225 mg/L histidine, 225 mg/L adenine, 225 mg/L uracil), respectively. The assays were carried out in accordance with the 2003 guidelines of the Clinical and Laboratory Standards Institute (CLSI) using the microtiter method. Briefly, microbial seed cultures were initiated by inoculating 3 mL of the indicated medium each strain and by growing these overnight at the indicated temperatures. Each culture was then diluted to an initial OD600 nm of 0.02 in 100 μL volume per well in a 96-well plate, which gave an inoculum of ˜5×10^5 to 5×10^6 cells. […] The plates were then incubated at the temperatures listed above without shaking and OD600 nm determined after 16 h (bacteria) or 40 h (yeast). […]

CNC1=CC(=O)c2cc(C)ncc2C1=O [compound 25, 3-methyl-7-methylamino-5,8-isoquinolinedione]
IC50 ([1]; read-out: IC50s (range over panel)): 0.2 to 50 µM | IC50 ([1]; read-out: mean IC50): 3.5 µM

COc1c2ccoc2cc2oc(=O)ccc12 [Bergapten]
elicitor of gene cluster 2631 (ranking) (Gene cluster 2631): top three elicitors

OCc1c[nH]c2ccccc12 [Indole-3-carbinol]
elicitor of gene cluster 4143 (ranking) (Gene cluster 4143): top three elicitors | elicitor of gene cluster 4477 (ranking) (Gene cluster 4477): top three elicitors

Oc1cc(O)cc(/C=C/c2ccc(O)c(O)c2)c1 [piceattanol]
induction of the sur cluster in both reporter strains (hit ranking) (sur cluster): best hits

bromolaudanosine
induction of the sur cluster in both reporter strains (hit ranking) (sur cluster): best hits

CC#C[C@]1(O)CC[C@H]2[C@@H]3CCC4=CC(=O)CCC4=C3[C@@H](c3ccc(N(C)C)cc3)C[C@@]21C [Mifepristone]
elicitor of gene cluster 3648 (ranking) (Gene cluster 3648): top four elicitors

CC(C)C[C@H]1NC(=O)[C@@H](Cc2ccccc2)NC(=O)[C@H](C(C)C)NC(=O)[C@H](CCCCN)NC(=O)[C@@H](C(C)C)NC(=O)[C@H](C(C)C)NC(=O)[C@@H](C)NC(=O)[C@H](C(C)C)NC1=O [surugamide I] (cyclo(KV[dF][dL]V[dA]V[dV]))
IC50 (cathepsin B): 9 µM

ivermectin
induction of the sur cluster in both reporter strains (hit ranking) (sur cluster): best hits | upregulation of surC (surA and surC; at the optimal elicitor concentration, vs DMSO): 4.5 fold | induction of surA and surC (surA and surC): 3 fold | elicitor of gene cluster 4143 (ranking) (Gene cluster 4143): top three elicitors

CC(C)[C@@]1(NC(=O)[C@@H]2C[C@@H]3c4cccc5[nH]cc(c45)C[C@H]3N(C)C2)O[C@@]2(O)[C@@H]3CCCN3C(=O)[C@H](Cc3ccccc3)N2C1=O [dihydroergocristine]
induction of the sur cluster in both reporter strains (hit ranking) (sur cluster): best hits | induction of surA and surC (surA and surC): 3 fold

CC[C@H](C)/C=C(C)/C=C/C1=CC2=C(Cl)C(=O)[C@](C)(OC(C)=O)C(=O)C2=CO1 [Sclerotiorin]
elicitor of gene cluster 4286 (ranking) (Gene cluster 4286): top three elicitors

CCCC(=O)NCCCCC1NC(=O)[C@@H](C(C)CC)NC(=O)[C@H](C(C)CC)NC(=O)[C@@H](C)NC(=O)[C@H](C(C)CC)NC(=O)[C@@H](CC(C)C)NC(=O)[C@@H](Cc2ccccc2)NC(=O)[C@H](C(C)CC)NC1=O (stereo partly drawn) [acylsurugamide A] (cyclo([Ile(3ξ)][dA][Ile(3ξ)][dIle(3ξ)][ξK](Butyryl)[Ile(3ξ)][dF][dL]))
IC50 (S. cerevisiae): 3.5 µM

COc1cc(CNC(=O)CCCC/C=C/C(C)C)ccc1O [Capsacin]
elicitor of gene cluster 3648 (ranking) (Gene cluster 3648): top four elicitors
